Source: patent publication US9115085B2, “Crystalline forms of a prolyl hydroxylase inhibitor” (FibroGen, Inc., priority 2012, dated 2015)

Key:
Moisture sorption = assay type: physicochemical; conditions: from 5% to 95% relative humidity; lost on desorption
[1] = Solid form stability on storage (XRPD); assay type: physicochemical; conditions: for XRPD pattern / form after storage: 40° C./75% RH
Excerpt: X-Ray Powder Diffraction patterns were collected on a Bruker AXS C2 GADDS diffractometer using Cu Kα radiation (40 kV, 40 mA), automated XYZ stage, laser video microscope for auto-sample positioning and a HiStar 2-dimensional area detector. X-ray optics consists of a single Gobel multilayer mirror coupled with a pinhole collimator of 0.3 mm. […] Alternatively, X-Ray Powder Diffraction patterns were collected on a Bruker D8 diffractometer using Cu Kα radiation (40 kV, 40 mA), θ-2θ goniometer, and divergence of V4 and receiving slits, a Ge monochromator and a Lynxeye detector. […] The software used for data collection was Diffrac Plus XRD Commander v2.5.0 and the data were analyzed and presented using Diffrac Plus EVA v11.0.0.2 or v13.0.0.2. Samples were run under ambient conditions as flat plate specimens using powder as received. The sample was gently packed into a cavity cut into polished, zero-background (510) silicon wafer. The sample was rotated in its own plane during analysis. The details of the data collection are: • Angular range: 2 to 42°2θ • Step size: 0.05°2θ • Collection time: 0.5 s/step • Analysis duration: 7 minutes Differential Scanning Calorimetry (DSC)

Hep3B cells = test: Cell-based EPO assay; design: species or system human; conditions: 30 μM compound in DMSO compared to DMSO only control, 72 hours
Method: Hep3B cells (human hepatocellular carcinoma cells from ATCC, cat #HB-8064) were plated at 25,000 cells per well 96 well plates. The next day, the cells were washed once with DMEM (Cellgro, cat #10-013-CM)+0.5% fetal bovine serum (Cellgro, cat #35-010-CV) and incubated with various concentrations of compound or vehicle control (0.15% DMSO) in DMEM+0.5% fetal bovine serum for 72 hours. Cell free culture supernatants were generated by transfer to a conical bottom 96 well plate and centrifugation for 5 minutes at 2000 rpm. The supernatant was quantitated for EPO using a human EPO ELISA kit (R&D Systems, cat #DEP 00). The EPO values for the compounds reported herein (e.g., Table 22) are the measured value for cells plus compound minus the value for the vehicle control for the same cell preparation. The EPO values for the vehicle control for the cell preparations varied from 0-12.5 mIU/mL.

Molecule: Cc1nc(C(=O)NCC(=O)O)c(O)c2ccc(Oc3ccccc3)cc12 [Compound A Form A, [(4-hydroxy-1-methyl-7-phenoxy-isoquinoline-3-carbonyl)-amino]-acetic acid]
- moisture sorption weight gain (Moisture sorption): approximately 0.2%
- relative stability of crystalline forms ([1]; among Form B, C, and D of Compound A): most stable crystalline form
- Cell EPO (Hep3B cells): 182 mIU/mL

Molecule: Cc1nc(C(=O)NCC(=O)O)c(O)c2ccc(Oc3ccccc3)cc12 [Compound A Form D, [(4-hydroxy-1-methyl-7-phenoxy-isoquinoline-3-carbonyl)-amino]-acetic acid DMSO:water solvate]
- form conversion ([1]; left drying at ambient temperature): converted to Form A

Molecule: Cc1nc(C(=O)NCC(=O)O)c(O)c2ccc(Oc3ccccc3)cc12.NCCO [Compound A ethanolamine salt, [(4-hydroxy-1-methyl-7-phenoxy-isoquinoline-3-carbonyl)-amino]-acetic acid ethanolamine salt]
- XRPD pattern / form after storage [1]: Pattern 3

Molecule: [(4-hydroxy-1-methyl-7-phenoxy-isoquinoline-3-carbonyl)-amino]-acetic acid diethanolamine salt [Compound A diethanolamine salt]
- XRPD pattern / form after storage [1]: Pattern 2

Molecule: [(4-hydroxy-1-methyl-7-phenoxy-isoquinoline-3-carbonyl)-amino]-acetic acid hemihydrate [Compound A Form B]
- form conversion on storage ([1]; ambient temperature, full month (32 days), high resolution XRPD): almost completely reverted to anhydrous Form A
- crystalline pattern change on storage ([1]; stored at 25° C./96% RH for twelve days): reverting to Form A
